Results taken from US8785594B2, “Glycoproteins and glycosylated cells and a method for the preparation of the same” (Glycom A/S, priority 2007, dated 2014).

How the values were obtained:
Assay type in all cases: cell-based
B16.BL6 melanoma cells [1] = test: Staining of cell smears with FITC-labelled GS1B4 (Example 11)
Description: Five hundred mg of alpha-Gal trisaccharide-carbamate (9) was dissolved in PBS (without Mg^2+ and Ca^2+) (Gibco Invitrogen, Taastrup, Denmark) and passed through a sterile filter (Sartorius Minisart®, 0.20 my) (Sartorius, Goettingen, Germany). Eight different concentrations of conjugate were prepared. Two mL of each conjugate dilution was added to a flask with 2 mL of PBS (without Mg^2+ and Ca^2+) and 600 μl of cell suspension containing 10^6 B16.BL6 cells. The final volume of the flasks was 4.6 mL. The flasks were numbered 1 to 10. Flasks 1 and 10 contained no conjugate and served as controls. The cells were incubated with the conjugate for 3 hours and 25 minutes at 37° C. and 5% CO2.
Smears of cells from conjugation reaction 1 (non-conjugated control cells), 2, 4, 6 and 8 were incubated for 1 hour at room temperature with FITC-labelled GS1B4 diluted 1:200 in TBS. After a rinse in TBS, one drop of Fluorescent Mounting Medium (DAKO) was placed on each of the cell specimens and glass coverslips were placed on top. Binding of FITC-labelled GS1B4 to Galα1,3Gal on conjugated cells was assessed by fluorescence microscopy.

B16.BL6 melanoma cells [2] = test: Flow cytometry with FITC-labelled GS1B4 (Example 14)
Description: Radioactive labelled and regular trisaccharide probe was dissolved in HBSS containing D-glucose (without Mg^2+ and Ca^2+) (Gibco Invitrogen, Taastrup, Denmark) and passed through sterile filters (0.2 μm Supor® Acrodisc® 13, Gelman Sciences, Ann Arbor, Mich.). Four different concentrations of each “Glycom conjugate” (25 mg, 5 mg, 1 mg and 0.1 mg) were made. Twelve flasks (150 cm^2) (TPP, Trasadingen Switzerland) were prepared each containing a total of 10×10^6 B16.BL6 cells. The trisaccharide probe was added and the total volume was adjusted to 20 mL with HBSS containing D-glucose (without Mg^2+ and Ca^2+). The cells were incubated with the “Glycom conjugate” for 1.5 hours at 37° C. After conjugation, the supernatant from each flask was transferred to separate 50 mL tubes (TPP, Trasadingen Switzerland). The cells were harvested with Cell Dissociation Solution C5914 (5 mL per flask) (Sigma-Aldrich, Saint Louis, Mo. and transferred to the 50 mL tubes containing the supernatant. The cells were centrifuged for 3 minutes at 300 G at 20° C. and resuspended in 5 mL of PBS (without Mg^2+ and Ca^2+). This was repeated 3 times before cell concentration and viability was determined by microscopical evaluation of trypan blue stained cell samples.
Cells conjugated with regular trisaccharide probe were analysed by flow cytometry. Four hundred μl of each cell suspension containing 2×10^5 cells were incubated for 15 minutes at 4° C. with 10 μg per mL of FITC-labelled GS1B4. Mean fluorescence intensity of cells stained with GS1B4 was measured by flow cytometry.

B16.BL6 melanoma cells [3] = test: Scintillation, epitopes per cell (Example 15)
Description: Radioactive labelled and regular alpha-Gal trisaccharide-carbamate (9) probe (labeled on the cyclic carbamate carbon) was dissolved in HBSS containing D-glucose (without Mg^2+ and Ca^2+) (Gibco Invitrogen, Taastrup, Denmark) and passed through sterile filters (0.2 μm Supor® Acrodisc® 13, Gelman Sciences, Ann Arbor, Mich.). Eight different concentrations of radioactive labelled alpha-Gal trisaccharide-carbamate (9) (1 μg, 10 μg, 100 μg, 1 mg, 5 mg, 10 mg, 15 mg and 20 mg) and […] of regular “Glycom conjugate” (10 μg, 100 μg, 1 mg, 5 mg, 10 mg, 15 mg and 20 mg) were used. Twelve flasks (300 cm^2) (TPP, Trasadingen Switzerland) were prepared, each containing 10×10^6 B16.BL6 cells, for conjugation with the radioactive labelled trisaccharide probe, and 8 flasks (150 cm^2) (TPP, Trasadingen Switzerland) were prepared, each containing 5×10^6 B16.BL6 cells, for conjugation with the non-radioactive conjugate. The Glycom conjugate was added and the total volume was adjusted with HBSS containing D-glucose (without Mg^2+ and Ca^2+) so that each large flask (300 cm^2) contained a final volume of 20 mL and each medium flask (150 cm^2) contained a final volume of 10 mL. Cells were incubated with the “Glycom conjugate” for 1.5 hours at 37° C. After conjugation, the supernatant from each flask was transferred to separate 50 mL tubes (TPP, Trasadingen Switzerland). The cells were harvested with Cell Dissociation Solution (10 mL per large flask and 5 mL per medium flask) (Sigma-aldrich, Saint Louis, Mo.) and transferred to the 50 mL tubes containing the supernatant. The cells were centrifuged for 5 minutes at 300 G at 20° C. and resuspended in 5 mL of PBS (without Mg^2+ and Ca^2+). This was repeated 3 times before cell concentration and viability was determined by microscopic evaluation of trypan blue stained cell samples.
Cells incubated with radioactive labelled trisaccharide probe were centrifuged for 5 minutes at 1000 G at 20° C. The supernatant was discharged and the remaining pellets were dried. Subsequently, the pellets were dissolved in 450 μl Mili-Q H2O and 1.5 mL of scintillation fluid was added. Standards for the scintillation were made by adding 500 pCi, 0.5 pCi and 0 pCi to the 3 samples of control cells. The samples were stored at room temperature for 3 days, before the cell suspensions were transferred to scintillation vials and counted.

SMILES | Staining of cell membranes with FITC-labelled GS1B4 (B16.BL6 melanoma cells [1]; conjugation reaction 2 (200 mg)) | Galα1,3Gal epitopes detected by binding of FITC-labelled GS1B4 on cell smears (B16.BL6 melanoma cells [1]; conjugation reactions 2, 4, 6 and 8 (200, 50, 10, 2 mg)) | Cells marked with GS1B4 (B16.BL6 melanoma cells [2]; 0.1 mg conjugate added) | Mean fluorescence intensity of cells marked with GS1B4 (B16.BL6 melanoma cells [2]; 0.1 mg conjugate added) | Cells marked with GS1B4 (B16.BL6 melanoma cells [2]; 1 mg conjugate added) | Mean fluorescence intensity of cells marked with GS1B4 (B16.BL6 melanoma cells [2]; 1 mg conjugate added) | Cells marked with GS1B4 (B16.BL6 melanoma cells [2]; 5 mg conjugate added) | Mean fluorescence intensity of cells marked with GS1B4 (B16.BL6 melanoma cells [2]; 5 mg conjugate added) | Cells marked with GS1B4 (B16.BL6 melanoma cells [2]; 25 mg conjugate added) | Mean fluorescence intensity of cells marked with GS1B4 (B16.BL6 melanoma cells [2]; 25 mg conjugate added) | Binding of FITC-labelled GS1B4 to conjugated cells (B16.BL6 melanoma cells [2]; 0.1-25 mg regular trisaccharide probe) | Epitopes per cell (B16.BL6 melanoma cells [3]; 1 μg conjugate added) | Relation of scintillation counts to dose of conjugate (B16.BL6 melanoma cells [3]; 1 μg-20 mg) | Epitopes per cell (B16.BL6 melanoma cells [3]; 10 μg conjugate added) | Epitopes per cell (B16.BL6 melanoma cells [3]; 100 μg conjugate added) | Epitopes per cell (B16.BL6 melanoma cells [3]; 1 mg conjugate added) | Epitopes per cell (B16.BL6 melanoma cells [3]; 5 mg conjugate added) | Epitopes per cell (B16.BL6 melanoma cells [3]; 15 mg conjugate added) | Epitopes per cell (B16.BL6 melanoma cells [3]; 20 mg conjugate added)
O=C1N[C@@H]2O[C@H](CO)[C@@H](O[C@@H]3O[C@H](CO)[C@H](O)[C@H](O[C@H]4O[C@H](CO)[C@H](O)[C@H](O)[C@H]4O)[C@H]3O)[C@H](O)[C@H]2O1 [Compound 9, alpha-Gal trisaccharide-carbamate] | heavily stained | found on cells from all conjugation reactions tested | 17.64% | 1025.86 | 2.36% | 342.05 | 14.56% | 1719.58 | 31.86% | 2460.67 | only a fraction of the conjugated cells bound detectable amounts of FITC-labelled GS1B4 |  |  |  |  |  |  |  | 
O=[13C]1N[C@@H]2O[C@H](CO)[C@@H](O[C@@H]3O[C@H](CO)[C@H](O)[C@H](O[C@H]4O[C@H](CO)[C@H](O)[C@H](O)[C@H]4O)[C@H]3O)[C@H](O)[C@H]2O1 [radioactive labelled conjugate] |  |  |  |  |  |  |  |  |  |  |  | 1.0 × 10^6 | positive correlation | 0.6 × 10^6 | 6.8 × 10^6 | 33.9 × 10^6 | 175.3 × 10^6 | 501.2 × 10^6 | 515.2 × 10^6
